Data published in patent US10835533B2, “1 -((3S,4R)-4-(3-fluorophenyl)-1-(2-methoxyethyl)pyrrolidin-3-yl)-3-(4-methyl-3-(2-methylpyrimidin-5-yl)-1-phenyl-1H-pyrazol-5-yl)urea as a TrkA kinase inhibitor” (Array BioPharma Inc., priority 2014, dated 2020).

Tests used:
Test in all cases: KinaseProfiler kinase profiling
Assay type in all cases: biochemical
Settings in all cases: 10 μM, ATP near Km
mTOR/FKBP12 = biological target: T1, mTOR/FKBP12 (Homo sapiens, UniProt P42345)
T1 construct: purchased Millipore, Inc. (KinaseProfiler service)
Procedure: (§1) Compound 1 was tested for off-target kinase activity at a concentration of 10 μM by Millipore, Inc. in their KinaseProfiler™ service against all the kinases available in their full kinase panel. Compound 1 was run in duplicate at a concentration of ATP near the Km for each individual kinase according to Millipore's specifications. Data are reported as percent of control (POC) and are the average of the two replicates.

PKCgamma = biological target: T2, PKCgamma (Homo sapiens, UniProt P05129)
T2 construct: purchased Millipore, Inc. (KinaseProfiler service)
Procedure: as §1

ULK2 = biological target: T3, ULK2 (Homo sapiens, UniProt Q8IYT8)
T3 construct: purchased Millipore, Inc. (KinaseProfiler service)
Procedure: as §1

PDGFRalpha = biological target: T4, PDGFRalpha (Homo sapiens, UniProt P16234)
T4 construct: purchased Millipore, Inc. (KinaseProfiler service)
Procedure: as §1

LOK = biological target: T5, LOK (Homo sapiens, UniProt O94804)
T5 construct: purchased Millipore, Inc. (KinaseProfiler service)
Procedure: as §1

SGK1 = biological target: T6, SGK1 (Homo sapiens, UniProt O00141)
T6 construct: purchased Millipore, Inc. (KinaseProfiler service)
T6 sequence (O00141 whole entry): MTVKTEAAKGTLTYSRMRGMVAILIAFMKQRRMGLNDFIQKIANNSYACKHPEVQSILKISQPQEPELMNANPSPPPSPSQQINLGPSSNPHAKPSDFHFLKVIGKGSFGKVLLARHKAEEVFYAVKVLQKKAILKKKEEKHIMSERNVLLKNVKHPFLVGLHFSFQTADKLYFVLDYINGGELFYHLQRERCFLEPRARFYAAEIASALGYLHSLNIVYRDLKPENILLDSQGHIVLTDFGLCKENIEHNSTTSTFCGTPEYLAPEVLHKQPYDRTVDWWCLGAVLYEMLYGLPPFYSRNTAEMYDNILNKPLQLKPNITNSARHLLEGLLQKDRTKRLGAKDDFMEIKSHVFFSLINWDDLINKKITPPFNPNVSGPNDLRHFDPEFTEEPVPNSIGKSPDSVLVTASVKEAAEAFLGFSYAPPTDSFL
Procedure: as §1

Plk1 = biological target: T7, Plk1 (Homo sapiens, UniProt P53350)
T7 construct: purchased Millipore, Inc. (KinaseProfiler service)
Procedure: as §1

Ros = biological target: T8, Ros (Homo sapiens, UniProt P08922)
T8 construct: purchased Millipore, Inc. (KinaseProfiler service)
Procedure: as §1

Rse = biological target: T9, Rse (Homo sapiens, UniProt Q06418)
T9 construct: purchased Millipore, Inc. (KinaseProfiler service)
T9 sequence (Q06418 41-890): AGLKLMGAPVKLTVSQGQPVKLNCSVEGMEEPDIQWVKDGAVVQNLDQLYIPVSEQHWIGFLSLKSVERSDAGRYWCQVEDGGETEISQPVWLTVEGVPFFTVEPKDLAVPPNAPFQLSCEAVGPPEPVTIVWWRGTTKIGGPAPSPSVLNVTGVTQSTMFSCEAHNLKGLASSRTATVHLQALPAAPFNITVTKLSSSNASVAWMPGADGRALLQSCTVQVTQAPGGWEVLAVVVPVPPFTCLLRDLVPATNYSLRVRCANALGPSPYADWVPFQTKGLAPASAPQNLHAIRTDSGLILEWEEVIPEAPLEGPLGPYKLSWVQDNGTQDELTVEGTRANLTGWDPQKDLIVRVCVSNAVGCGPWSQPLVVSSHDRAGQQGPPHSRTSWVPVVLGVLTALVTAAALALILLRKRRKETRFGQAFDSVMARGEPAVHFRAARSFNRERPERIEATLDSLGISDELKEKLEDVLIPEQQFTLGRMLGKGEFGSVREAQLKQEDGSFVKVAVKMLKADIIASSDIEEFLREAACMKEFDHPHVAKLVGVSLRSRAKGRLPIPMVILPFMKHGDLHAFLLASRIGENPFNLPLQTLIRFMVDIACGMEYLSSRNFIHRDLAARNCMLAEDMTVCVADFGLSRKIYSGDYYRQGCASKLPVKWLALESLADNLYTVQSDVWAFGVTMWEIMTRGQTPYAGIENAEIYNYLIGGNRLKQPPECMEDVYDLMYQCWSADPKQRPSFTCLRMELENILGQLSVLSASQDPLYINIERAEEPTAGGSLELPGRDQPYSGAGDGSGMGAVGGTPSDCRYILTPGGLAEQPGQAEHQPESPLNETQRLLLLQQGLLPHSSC
Procedure: as §1

PKCdelta = biological target: T10, PKCdelta (Homo sapiens, UniProt Q05655)
T10 construct: purchased Millipore, Inc. (KinaseProfiler service)
Procedure: as §1

TrkB = biological target: T11, TrkB (Homo sapiens, UniProt Q16620)
T11 construct: purchased Millipore, Inc. (KinaseProfiler service)
Procedure: as §1

JNK1alpha1 = biological target: T12, JNK1alpha1 (Homo sapiens, UniProt P45983)
T12 construct: purchased Millipore, Inc. (KinaseProfiler service)
Procedure: as §1

PKCbetaII = biological target: T13, PKCbetaII (Homo sapiens, UniProt P05771)
T13 construct: purchased Millipore, Inc. (KinaseProfiler service)
Procedure: as §1

ULK3 = biological target: T14, ULK3 (Homo sapiens, UniProt Q6PHR2)
T14 construct: purchased Millipore, Inc. (KinaseProfiler service)
Procedure: as §1

Plk2 = biological target: T15, Plk2 (Homo sapiens, UniProt Q9NYY3)
T15 construct: purchased Millipore, Inc. (KinaseProfiler service)
Procedure: as §1

GRK5 = biological target: T16, GRK5 (Homo sapiens, UniProt P34947)
T16 construct: purchased Millipore, Inc. (KinaseProfiler service)
Procedure: as §1

Pim-1 = biological target: T17, Pim-1 (Homo sapiens, UniProt P11309)
T17 construct: purchased Millipore, Inc. (KinaseProfiler service)
T17 sequence (P11309 whole entry): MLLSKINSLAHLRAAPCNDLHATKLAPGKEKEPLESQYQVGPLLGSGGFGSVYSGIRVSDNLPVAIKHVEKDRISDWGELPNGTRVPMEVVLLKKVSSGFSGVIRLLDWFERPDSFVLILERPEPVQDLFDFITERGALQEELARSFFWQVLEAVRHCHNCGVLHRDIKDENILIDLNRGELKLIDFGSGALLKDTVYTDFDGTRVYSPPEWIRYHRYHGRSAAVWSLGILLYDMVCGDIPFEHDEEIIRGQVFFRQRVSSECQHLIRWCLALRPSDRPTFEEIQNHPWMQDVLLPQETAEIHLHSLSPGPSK
Procedure: as §1

CDK9/cyclinT1 = biological target: T18, CDK9/cyclinT1 (Homo sapiens, UniProt P50750)
T18 construct: purchased Millipore, Inc. (KinaseProfiler service)
Procedure: as §1

EphA3 = biological target: T19, EphA3 (Homo sapiens, UniProt P29320)
T19 construct: purchased Millipore, Inc. (KinaseProfiler service)
T19 sequence (P29320 21-983): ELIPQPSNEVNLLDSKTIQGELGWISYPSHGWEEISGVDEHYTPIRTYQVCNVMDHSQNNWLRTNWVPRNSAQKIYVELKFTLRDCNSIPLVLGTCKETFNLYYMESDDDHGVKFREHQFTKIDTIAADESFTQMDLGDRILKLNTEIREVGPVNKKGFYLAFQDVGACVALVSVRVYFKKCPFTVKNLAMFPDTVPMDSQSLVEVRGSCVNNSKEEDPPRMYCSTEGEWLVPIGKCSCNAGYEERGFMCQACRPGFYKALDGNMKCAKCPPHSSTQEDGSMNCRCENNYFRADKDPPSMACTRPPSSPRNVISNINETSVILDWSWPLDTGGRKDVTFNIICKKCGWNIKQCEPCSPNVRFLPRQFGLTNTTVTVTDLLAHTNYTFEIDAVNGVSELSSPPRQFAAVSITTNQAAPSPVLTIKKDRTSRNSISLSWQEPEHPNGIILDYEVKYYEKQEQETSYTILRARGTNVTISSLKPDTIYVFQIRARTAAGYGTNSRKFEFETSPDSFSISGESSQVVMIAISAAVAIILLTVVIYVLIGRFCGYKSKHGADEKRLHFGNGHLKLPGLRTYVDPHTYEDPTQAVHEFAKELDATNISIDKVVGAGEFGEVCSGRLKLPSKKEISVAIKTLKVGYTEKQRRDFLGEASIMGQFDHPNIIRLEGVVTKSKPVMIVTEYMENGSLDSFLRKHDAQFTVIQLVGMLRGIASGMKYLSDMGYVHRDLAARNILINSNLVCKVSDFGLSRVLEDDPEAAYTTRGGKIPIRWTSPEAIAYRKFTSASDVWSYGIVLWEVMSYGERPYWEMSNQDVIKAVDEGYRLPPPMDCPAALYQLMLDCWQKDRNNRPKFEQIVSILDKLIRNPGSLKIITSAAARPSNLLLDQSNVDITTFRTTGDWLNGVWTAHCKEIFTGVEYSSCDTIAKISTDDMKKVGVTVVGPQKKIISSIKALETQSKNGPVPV
Procedure: as §1

PKD2 = biological target: T20, PKD2 (Homo sapiens, UniProt Q9BZL6)
T20 construct: purchased Millipore, Inc. (KinaseProfiler service)
Procedure: as §1

CAMK2g = biological target: T21, CAMK2g (Homo sapiens, UniProt Q13555)
T21 construct: purchased Millipore, Inc. (KinaseProfiler service)
T21 sequence (Q13555 whole entry): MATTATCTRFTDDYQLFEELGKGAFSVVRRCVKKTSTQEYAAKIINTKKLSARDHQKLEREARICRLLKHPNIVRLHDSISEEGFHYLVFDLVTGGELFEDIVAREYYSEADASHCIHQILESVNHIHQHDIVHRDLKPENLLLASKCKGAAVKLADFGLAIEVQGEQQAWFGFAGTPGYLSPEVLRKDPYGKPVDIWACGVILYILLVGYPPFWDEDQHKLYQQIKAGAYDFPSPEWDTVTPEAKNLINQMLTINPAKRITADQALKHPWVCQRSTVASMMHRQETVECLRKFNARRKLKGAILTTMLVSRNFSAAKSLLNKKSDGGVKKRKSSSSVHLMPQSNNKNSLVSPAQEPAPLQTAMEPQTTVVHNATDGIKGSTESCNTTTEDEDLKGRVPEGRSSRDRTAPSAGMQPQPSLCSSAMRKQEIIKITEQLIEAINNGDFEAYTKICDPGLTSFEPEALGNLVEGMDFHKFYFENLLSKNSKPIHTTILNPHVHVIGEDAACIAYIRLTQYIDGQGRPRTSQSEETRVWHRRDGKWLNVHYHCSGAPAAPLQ
Procedure: as §1

PAK4 = biological target: T22, PAK4 (Homo sapiens, UniProt O96013)
T22 construct: purchased Millipore, Inc. (KinaseProfiler service)
Procedure: as §1

IKKalpha = biological target: T23, IKKalpha (Homo sapiens, UniProt O15111)
T23 construct: purchased Millipore, Inc. (KinaseProfiler service)
Procedure: as §1

MKK6 = biological target: T24, MKK6 (Homo sapiens, UniProt P52564)
T24 construct: purchased Millipore, Inc. (KinaseProfiler service)
T24 sequence (P52564 whole entry): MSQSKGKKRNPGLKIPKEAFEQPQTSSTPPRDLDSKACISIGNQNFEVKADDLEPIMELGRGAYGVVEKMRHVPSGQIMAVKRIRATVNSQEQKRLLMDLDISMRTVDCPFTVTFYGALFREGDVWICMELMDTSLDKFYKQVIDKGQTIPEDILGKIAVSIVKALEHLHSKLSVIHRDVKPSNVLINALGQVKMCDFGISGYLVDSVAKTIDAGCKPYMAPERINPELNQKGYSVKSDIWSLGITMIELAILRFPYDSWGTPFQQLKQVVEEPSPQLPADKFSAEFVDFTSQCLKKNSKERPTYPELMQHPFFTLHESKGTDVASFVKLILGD
Procedure: as §1

SGK3 = biological target: T25, SGK3 (Homo sapiens, UniProt Q96BR1)
T25 construct: purchased Millipore, Inc. (KinaseProfiler service)
Procedure: as §1

CK1delta = biological target: T26, CK1delta (Homo sapiens, UniProt P48730)
T26 construct: purchased Millipore, Inc. (KinaseProfiler service)
Procedure: as §1

MLK1 = biological target: T27, MLK1 (Homo sapiens, UniProt P80192)
T27 construct: purchased Millipore, Inc. (KinaseProfiler service)
Procedure: as §1

MAPKAP-K5 = biological target: T28, MAPKAP-K5 (Homo sapiens, UniProt Q8IW41)
T28 construct: purchased Millipore, Inc. (KinaseProfiler service)
Procedure: as §1

PAK2 = biological target: T29, PAK2 (Homo sapiens, UniProt Q13177)
T29 construct: purchased Millipore, Inc. (KinaseProfiler service)
T29 sequence (Q13177 whole entry): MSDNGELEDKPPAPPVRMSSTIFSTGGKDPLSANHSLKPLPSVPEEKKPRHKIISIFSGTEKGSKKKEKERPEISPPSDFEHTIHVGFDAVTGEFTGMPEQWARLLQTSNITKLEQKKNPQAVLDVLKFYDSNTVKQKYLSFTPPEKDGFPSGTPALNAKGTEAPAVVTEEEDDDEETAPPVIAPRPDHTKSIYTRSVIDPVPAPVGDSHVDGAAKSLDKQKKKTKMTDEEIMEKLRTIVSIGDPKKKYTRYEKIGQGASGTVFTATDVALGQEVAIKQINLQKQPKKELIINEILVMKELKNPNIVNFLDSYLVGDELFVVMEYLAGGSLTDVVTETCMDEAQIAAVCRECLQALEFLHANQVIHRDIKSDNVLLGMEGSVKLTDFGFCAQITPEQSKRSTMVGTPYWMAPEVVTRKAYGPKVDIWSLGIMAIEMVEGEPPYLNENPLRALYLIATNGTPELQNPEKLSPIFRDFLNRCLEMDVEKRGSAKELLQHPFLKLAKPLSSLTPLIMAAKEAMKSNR
Procedure: as §1

Fyn = biological target: T30, Fyn (Homo sapiens, UniProt P06241)
T30 construct: purchased Millipore, Inc. (KinaseProfiler service)
Procedure: as §1

CDK6/cyclinD3 = biological target: T31, CDK6/cyclinD3 (Homo sapiens, UniProt Q00534)
T31 construct: purchased Millipore, Inc. (KinaseProfiler service)
Procedure: as §1

EphA2 = biological target: T32, EphA2 (Homo sapiens, UniProt P29317)
T32 construct: purchased Millipore, Inc. (KinaseProfiler service)
T32 sequence (P29317 24-976): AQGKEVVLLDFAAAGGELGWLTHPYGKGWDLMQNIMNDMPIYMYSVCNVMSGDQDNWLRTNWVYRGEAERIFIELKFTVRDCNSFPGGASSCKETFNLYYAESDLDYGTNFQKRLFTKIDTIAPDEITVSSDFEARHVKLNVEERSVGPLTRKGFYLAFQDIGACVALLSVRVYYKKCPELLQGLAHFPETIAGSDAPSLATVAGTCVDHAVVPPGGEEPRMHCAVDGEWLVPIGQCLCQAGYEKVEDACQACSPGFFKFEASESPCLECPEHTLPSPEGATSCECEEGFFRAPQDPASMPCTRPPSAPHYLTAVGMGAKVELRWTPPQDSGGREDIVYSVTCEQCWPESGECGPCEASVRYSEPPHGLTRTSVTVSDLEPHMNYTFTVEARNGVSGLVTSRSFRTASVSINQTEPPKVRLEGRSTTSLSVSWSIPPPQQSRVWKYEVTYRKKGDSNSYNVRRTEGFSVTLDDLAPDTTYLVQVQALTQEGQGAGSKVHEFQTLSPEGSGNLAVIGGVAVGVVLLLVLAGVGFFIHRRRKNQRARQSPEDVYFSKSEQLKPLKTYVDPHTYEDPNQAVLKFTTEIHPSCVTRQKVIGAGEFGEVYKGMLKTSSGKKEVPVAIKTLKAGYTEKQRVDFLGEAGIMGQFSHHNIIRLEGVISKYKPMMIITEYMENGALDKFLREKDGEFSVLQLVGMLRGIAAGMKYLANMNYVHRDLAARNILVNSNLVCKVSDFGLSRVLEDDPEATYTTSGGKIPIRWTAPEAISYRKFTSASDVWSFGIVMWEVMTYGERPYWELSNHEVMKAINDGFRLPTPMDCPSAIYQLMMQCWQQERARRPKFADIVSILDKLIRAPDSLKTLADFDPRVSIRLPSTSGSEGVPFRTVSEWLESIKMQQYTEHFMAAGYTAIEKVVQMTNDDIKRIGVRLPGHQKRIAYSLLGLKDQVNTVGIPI
Procedure: as §1

PKD1 = biological target: T33, PKD1 (Homo sapiens, UniProt Q15139)
T33 construct: purchased Millipore, Inc. (KinaseProfiler service)
Procedure: as §1

PASK = biological target: T34, PASK (Homo sapiens, UniProt Q96RG2)
T34 construct: purchased Millipore, Inc. (KinaseProfiler service)
Procedure: as §1

NEK11 = biological target: T35, NEK11 (Homo sapiens, UniProt Q8NG66)
T35 construct: purchased Millipore, Inc. (KinaseProfiler service)
Procedure: as §1

MAP4K2 = biological target: T36, MAP4K2 (Homo sapiens, UniProt Q12851)
T36 construct: purchased Millipore, Inc. (KinaseProfiler service)
Procedure: as §1

TAK1-TAB1 = biological target: T37, TAK1-TAB1 (Homo sapiens, UniProt O43318)
T37 construct: purchased Millipore, Inc. (KinaseProfiler service)
Procedure: as §1

Hck = biological target: T38, Hck (Homo sapiens, UniProt P08631)
T38 construct: purchased Millipore, Inc. (KinaseProfiler service)
Procedure: as §1

EphB4 = biological target: T39, EphB4 (Homo sapiens, UniProt P54760)
T39 construct: purchased Millipore, Inc. (KinaseProfiler service)
Procedure: as §1

TNK2 = biological target: T40, TNK2 (Homo sapiens, UniProt Q07912)
T40 construct: purchased Millipore, Inc. (KinaseProfiler service)
Procedure: as §1

CDK2/cyclinA = biological target: T41, CDK2/cyclinA (Homo sapiens, UniProt P24941)
T41 construct: purchased Millipore, Inc. (KinaseProfiler service)
Procedure: as §1

## COCCN1C[C@@H](NC(=O)Nc2c(C)c(-c3cnc(C)nc3)nn2-c2ccccc2)[C@H](c2cccc(F)c2)C1 [Compound 1, 1-((3S,4R)-4-(3-fluorophenyl)-1-(2-methoxyethyl)pyrrolidin-3-yl)-3-(4-methyl-3-(2-methylpyrimidin-5-yl)-1-phenyl-1H-pyrazol-5-yl)urea]
mTOR/FKBP12
  Avg POC: 105.5 POC
PKCgamma
  Avg POC: 98 POC
ULK2
  Avg POC: 106 POC
PDGFRalpha
  Avg POC: 96 POC
LOK
  Avg POC: 125.5 POC
SGK1
  Avg POC: 105 POC
Plk1
  Avg POC: 99.5 POC
Ros
  Avg POC: 112.5 POC
Rse
  Avg POC: 102.5 POC
PKCdelta
  Avg POC: 102 POC
TrkB
  Avg POC: 1.5 POC
JNK1alpha1
  Avg POC: 95 POC
PKCbetaII
  Avg POC: 99.5 POC
ULK3
  Avg POC: 107.5 POC
Plk2
  Avg POC: 101 POC
GRK5
  Avg POC: 100 POC
Pim-1
  Avg POC: 103.5 POC
CDK9/cyclinT1
  Avg POC: 112 POC
EphA3
  Avg POC: 95.5 POC
PKD2
  Avg POC: 94.5 POC
CAMK2g
  Avg POC: 97 POC
PAK4
  Avg POC: 97 POC
IKKalpha
  Avg POC: 101.5 POC
MKK6
  Avg POC: 107.5 POC
SGK3
  Avg POC: 112.5 POC
CK1delta
  Avg POC: 104 POC
MLK1
  Avg POC: 109.5 POC
MAPKAP-K5
  Avg POC: 89.5 POC
PAK2
  Avg POC: 105.5 POC
Fyn
  Avg POC: 96.5 POC
CDK6/cyclinD3
  Avg POC: 99.5 POC
EphA2
  Avg POC: 92.5 POC
PKD1
  Avg POC: 94.5 POC
PASK
  Avg POC: 137.5 POC
NEK11
  Avg POC: 94 POC
MAP4K2
  Avg POC: 101 POC
TAK1-TAB1
  Avg POC: 101.5 POC
Hck
  Avg POC: 108.5 POC
EphB4
  Avg POC: 102 POC
TNK2
  Avg POC: 93.5 POC
CDK2/cyclinA
  Avg POC: 94.5 POC
